In patent US20100087475A1, “PHARMACEUTICAL COMPOUNDS” (Biovali Laboratories International (Barbados) S.R.L., priority 2008, published 2010):

Experiments:
Conditions in all cases: compound at 10 μM
Sigma σ1 Receptor = biological target: T1, Sigma σ1 Receptor (Homo sapiens, UniProt Q99720); test: Radioligand binding, [3H] Haloperidol, jurkat cells
T1 construct: Source: Human jurkat cells; endogenous in cells; host or cells: Jurkat cells
Description: (§1) Compounds of the invention were subjected to specific binding assays to test their ability to bind to the receptors and transporter proteins described below.
• Reference: Ganaphthy et al., Pharmacol. Exp. Ther., 289:251-260, (1999) • Source: Human jurkat cells • Ligand: 8 nM [3H]

[1] = tested on: Imidazoline I2 (Peripheral) Receptor; test: Radioligand binding, [3H] Idazoxan, kidney; set-up: species or system Wistar rat
Description: as §1
(I) Imidazoline I2 (Peripheral) Receptor:
• Reference: Brown et al., Brit. J. Pharmacol., 99:803-809, (1990) • Source: Wistar rat kidney • Ligand: 5 nM [^3H]

Dopamine D1 Receptor = biological target: T2, Dopamine D1 Receptor (Homo sapiens, UniProt P21728); test: Radioligand binding, [3H] SCH-23390
T2 construct: expressed in transfected cells; host or cells: CHO cells
Description: as §1
(d) Dopamine D1 Receptor:
• Reference: Dearry et al., Nature, 347:72-76, (1990) • Source: Human recombinant CHO cells • Ligand: 1.4 nM [3H] SCH-23390 • Vehicle: 1% DMSO • Incubation time/Temp: 2 hours @ 37° C. • Incubation buffer: 50 mM Tris-HCl, pH 7.4, 150 mM NaCl, 1.4 mM ascorbic acid, 0.001% BSA • Non Specific ligand: 10 μM (+)-butaclamol • Kd: 1.4 nM • Bmax: 0.63 pmole/mg protein • Specific binding: 90% • Quantitation method: Radioligand binding • Significance criteria: ≧50% of maximum stimulation or inhibition

Dopamine D2L Receptor = biological target: T3, Dopamine D2L Receptor (Homo sapiens, UniProt P14416); test: Radioligand binding, [3H] Spiperone
T3 construct: expressed in transfected cells; host or cells: CHO cells
Description: as §1
(e) Dopamine D2L Receptor:
(§2) • Reference: Grandy et al., Proc. Natl. Acad. Sci. USA, 86:9762-9766 (1989) • Source: Human recombinant CHO cells • Ligand: 0.16 nM [^3H]

Dopamine D2S Receptor = biological target: T4, Dopamine D2S Receptor (Homo sapiens, UniProt P14416); test: Radioligand binding, [3H] Spiperone
T4 construct: expressed in transfected cells; host or cells: CHO cells
Description: as §1
(f) Dopamine D2S Receptor:
as §2

Adrenergic α2C Receptor = biological target: T5, Adrenergic α2C Receptor (Homo sapiens, UniProt P18825); test: Radioligand binding, [3H] MK-912
T5 construct: expressed in transfected cells; host or cells: insect Sf9 cells
T5 sequence (P18825 1-462): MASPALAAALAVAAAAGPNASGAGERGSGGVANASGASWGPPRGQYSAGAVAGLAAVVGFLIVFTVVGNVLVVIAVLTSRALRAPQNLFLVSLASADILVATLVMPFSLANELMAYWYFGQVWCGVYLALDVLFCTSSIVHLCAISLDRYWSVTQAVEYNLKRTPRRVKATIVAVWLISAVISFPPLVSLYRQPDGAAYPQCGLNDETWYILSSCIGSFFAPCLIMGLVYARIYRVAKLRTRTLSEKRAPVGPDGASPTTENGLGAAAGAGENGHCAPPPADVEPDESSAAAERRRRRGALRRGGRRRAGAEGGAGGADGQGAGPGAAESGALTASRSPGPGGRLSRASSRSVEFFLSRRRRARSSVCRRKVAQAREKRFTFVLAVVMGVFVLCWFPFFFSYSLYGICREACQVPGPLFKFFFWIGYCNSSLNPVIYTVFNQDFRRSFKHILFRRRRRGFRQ
Description: as §1
(c) Adrenergic α2C Receptor:
• Reference: S. Uhlçn et al. J. Pharmacol. Exp. Ther., 271:1558-1565 (1994) • Source: Human recombinant insect Sf9 cells • Ligand: 1 nM [^3H]

Sigma σ2 Receptor = biological target: T6, Sigma σ2 Receptor (Rattus norvegicus, UniProt Q5U3Y7); test: Radioligand binding, [3H] Ifenprodil, brain; set-up: species or system Wistar rat
T6 construct: Source: Wistar rat brain; from tissue; host or cells: Wistar rat brain
T6 sequence (Q5U3Y7 1-176): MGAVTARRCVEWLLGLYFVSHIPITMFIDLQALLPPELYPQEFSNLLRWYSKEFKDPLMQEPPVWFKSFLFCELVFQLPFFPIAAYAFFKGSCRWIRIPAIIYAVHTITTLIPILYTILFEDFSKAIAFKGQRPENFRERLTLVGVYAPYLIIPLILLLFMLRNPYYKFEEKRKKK
Description: as §1
• Reference: Hashimoto et al., Eur. J. Pharmacol., 236:159-163, (1993) • Source: Wistar rat brain • Ligand: 3 nM [3H] Ifenprodil • Vehicle: 1% DMSO • Incubation time/Temp: 60 minutes @ 37° C. • Incubation buffer: 50 mM Tris-HCl, pH 7.4 • Non Specific ligand: 10 μM Ifenprodil • Kd: 4.8 nM • Bmax: 1.3 pmole/mg protein • Specific binding: 85% • Quantitation method: Radioligand binding • Significance criteria: ≧50% of maximum stimulation or inhibition

Adrenergic α2B Receptor = biological target: T7, Adrenergic α2B Receptor (Homo sapiens, UniProt P18089); test: Radioligand binding, [3H] Rauwolscine
T7 construct: expressed in transfected cells; host or cells: CHO-K1 cells
T7 sequence (P18089 1-450): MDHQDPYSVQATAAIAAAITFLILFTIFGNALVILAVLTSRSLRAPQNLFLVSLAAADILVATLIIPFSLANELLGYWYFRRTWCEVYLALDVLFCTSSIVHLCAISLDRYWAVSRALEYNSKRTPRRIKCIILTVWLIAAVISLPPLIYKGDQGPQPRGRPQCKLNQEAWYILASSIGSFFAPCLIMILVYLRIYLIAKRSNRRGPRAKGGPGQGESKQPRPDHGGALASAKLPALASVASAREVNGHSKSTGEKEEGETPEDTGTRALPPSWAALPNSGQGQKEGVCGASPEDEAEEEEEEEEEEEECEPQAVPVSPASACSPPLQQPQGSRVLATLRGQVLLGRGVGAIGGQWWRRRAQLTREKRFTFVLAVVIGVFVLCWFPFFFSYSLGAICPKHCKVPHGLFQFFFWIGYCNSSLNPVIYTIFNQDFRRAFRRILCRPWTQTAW
Description: as §1
(b) Adrenergic α2B Receptor:
• Reference: S. Uhlen et al., Eur. J. Pharmacol., 343 (1): 93-1-01 (1998) • Source: Human recombinant CHO-K1 cells • Ligand: 2.5 nM [3H]

[2] = tested on: Imidazoline I2 (Central) Receptor; test: Radioligand binding, [3H] Idazoxan, cerebral cortex; set-up: species or system Wistar rat
Description: as §1
(k) Imidazoline I2 (Central) Receptor:
• Reference: Brown et al., Brit. J. Pharmacol., 99:803-809, (1990) • Source: Wistar rat cerebral cortex • Ligand: 2 nM [^3H]

T3 sequence (P14416 whole entry): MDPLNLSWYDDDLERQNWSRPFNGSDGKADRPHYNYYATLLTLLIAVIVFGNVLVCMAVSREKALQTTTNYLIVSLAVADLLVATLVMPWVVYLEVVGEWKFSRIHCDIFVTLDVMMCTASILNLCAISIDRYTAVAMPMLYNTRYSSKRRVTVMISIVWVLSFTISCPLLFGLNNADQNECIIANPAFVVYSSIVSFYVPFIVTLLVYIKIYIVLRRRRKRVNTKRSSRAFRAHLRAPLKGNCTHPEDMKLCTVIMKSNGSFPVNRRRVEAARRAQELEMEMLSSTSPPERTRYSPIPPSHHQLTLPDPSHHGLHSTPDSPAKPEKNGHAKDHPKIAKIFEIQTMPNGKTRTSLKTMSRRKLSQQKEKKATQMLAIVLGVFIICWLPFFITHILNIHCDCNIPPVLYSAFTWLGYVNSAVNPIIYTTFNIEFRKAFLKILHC
T1 sequence (Q99720 whole entry): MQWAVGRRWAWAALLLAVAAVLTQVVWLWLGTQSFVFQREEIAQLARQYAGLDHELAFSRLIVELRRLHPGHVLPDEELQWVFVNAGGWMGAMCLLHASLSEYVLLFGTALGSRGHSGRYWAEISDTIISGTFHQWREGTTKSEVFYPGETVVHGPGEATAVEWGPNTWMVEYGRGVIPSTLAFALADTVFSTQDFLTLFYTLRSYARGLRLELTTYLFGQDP
T2 sequence (P21728 whole entry): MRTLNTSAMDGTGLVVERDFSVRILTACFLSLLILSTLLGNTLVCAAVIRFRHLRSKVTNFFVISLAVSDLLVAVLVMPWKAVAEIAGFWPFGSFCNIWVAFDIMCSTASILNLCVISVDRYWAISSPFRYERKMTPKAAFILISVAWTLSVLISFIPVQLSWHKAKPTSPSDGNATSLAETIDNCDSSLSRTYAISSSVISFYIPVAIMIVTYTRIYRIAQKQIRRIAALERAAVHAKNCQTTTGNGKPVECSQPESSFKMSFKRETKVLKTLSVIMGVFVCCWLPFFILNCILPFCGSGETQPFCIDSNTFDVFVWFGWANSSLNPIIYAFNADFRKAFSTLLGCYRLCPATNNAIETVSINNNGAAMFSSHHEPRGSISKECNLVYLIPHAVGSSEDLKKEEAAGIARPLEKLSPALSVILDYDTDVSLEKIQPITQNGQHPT
T4 sequence (P14416 1-414 isoform P14416-2): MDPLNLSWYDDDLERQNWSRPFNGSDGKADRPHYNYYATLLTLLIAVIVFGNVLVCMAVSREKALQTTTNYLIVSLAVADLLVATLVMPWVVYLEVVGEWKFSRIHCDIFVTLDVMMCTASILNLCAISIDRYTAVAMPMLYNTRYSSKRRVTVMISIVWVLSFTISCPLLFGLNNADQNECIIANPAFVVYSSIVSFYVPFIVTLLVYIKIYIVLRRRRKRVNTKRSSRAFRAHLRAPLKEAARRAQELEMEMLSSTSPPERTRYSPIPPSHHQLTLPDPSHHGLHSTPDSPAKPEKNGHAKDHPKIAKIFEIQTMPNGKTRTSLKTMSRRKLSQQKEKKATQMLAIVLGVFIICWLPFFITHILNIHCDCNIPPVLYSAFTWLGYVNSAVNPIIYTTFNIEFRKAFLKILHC

% inhibition, (m) σ1 Receptor (Sigma σ1 Receptor)	% inhibition, (l) I2 Receptor (peripheral) [1]	% inhibition, (d) D1 Receptor (Dopamine D1 Receptor)	% inhibition, (e) D2L Receptor (Dopamine D2L Receptor)	% inhibition, (f) D2S Receptor (Dopamine D2S Receptor)	% inhibition, (c) α2C Receptor (Adrenergic α2C Receptor)	inhibition at 10 µM (Sigma σ2 Receptor; read-out: % inhibition, (n) σ2 Receptor)	% inhibition, (b) α2B Receptor (Adrenergic α2B Receptor)	% inhibition, (k) I2 Receptor (central) [2]	% inhibition, (n) σ2 Receptor (Sigma σ2 Receptor; 10 µM)	Structure (SMILES)
83%	24%	29%	54%	63%	−7%	31%	21%	24%	–	COc1cc2c(cc1O)[C@@H]1C[C@@H](O)[C@H](CC(C)C)CN1CC2 (single isomer, unassigned) [(+)-10-desmethyl-γ-dihydrotetrabenazine]
55%	25%	96%	98%	98%	60%	–	44%	66%	32%	COc1cc2c(cc1O)[C@@H]1C[C@@H](O)[C@H](CC(C)C)CN1CC2 (single isomer, unassigned) [(−)-10-desmethyl-γ-dihydrotetrabenazine]
